Consider two molecules from US7119072B2, “Macrocyclic peptides active against the hepatitis C virus” (Boehringer Ingelheim (Canada) Ltd., priority 2002, dated 2006).

The nature of this data set: In vivo oral absorption screen / pharmacokinetic assay in the rat. To be noted: male, Sprague Dawley, rat plasma, dose of 5 mg/kg in Methocel:Tween20 (0.5%:0.3%), read-out: area under the curve (AUC). The source says:
More explicitly, the following assay, an in vivo oral absorption screen, was used to determine plasma levels of test compounds in a rat after oral administration: The selection of compounds to be pooled into a “cassette” was based on their structural similarity and physicochemical properties. A solid phase extraction method applicable to all the selected compounds was established. Based on the initial testing where each compound was spiked into rat plasma and run through HPLC or HPLC/MS at a concentration of 0.5 μM, the retention time, ionic mass, and the possible separation among compounds by HPLC and/or HPLC/MS were used as basis for pooling 3–4 compounds into one “cassette”. Each “cassette” contains 3–4 compounds at 5 or 4 mg/kg for each compound. The cassettes were prepared as an oral suspension in 0.5% aqueous methylcellulose and 0.3% of polyoxyethylene (20) sorbiton monooleate (Tween-80). The dosing volume was 10 ml/kg via oral gavage. Male Sprague Dawley rats were fasted overnight in individual cages, with access to aqueous 10% dextrose. Two rats were dosed with each “cassette”. Plasma samples (˜1 ml) were collected at 1 and 2 h post-dosing from the 2 rats and pooled for extraction and analysis. […] Samples were analyzed by HPLC and HPLC/MS for comparison purpose. […]

Usually AUC stands for concentration integrated over time. Consider `COc1ccc2c(O[C@@H]3C[C@H]4C(=O)N[C@]5(C(=O)O)C[C@H]5/C=C\CCCCC[C@H](NC(=O)OC5CCCC5)C(=O)N4C3)cc(-c3csc(NC4CCCCC4)n3)nc2c1` [Compound 102], for which the AUC was found to be 18 µM·h. `COc1ccc2c(O[C@@H]3C[C@H]4C(=O)N[C@]5(C(=O)O)C[C@H]5/C=C\CCCCC[C@H](NC(=O)OC5CCCC5)C(=O)N4C3)cc(-c3csc(NC4CCCC4)n3)nc2c1` [Compound 101]: the AUC is 16 µM·h.
